≈ marks a conversion by molar mass, not a printed value.

Assay [1] deals with C. albicans. The experiment in a line: MIC, broth microdilution (NCCLS M27-A), C. albicans. Format: cell-based, Candida albicans. Conditions: 48 hours, C. albicans ATCC 10231; for MIC C. albicans: 35° C.; for MIC: Candida albicans, ATCC10231, 35° C. As to the method:
(§1) Compounds of the invention were tested for antifungal susceptibility using broth microdilution assay established by the National Committee for Clinical Laboratory Standards, in NCCLS Document M27-A, which is hereby incorporated by reference. Minimum inhibitory concentrations (MICs) and minimum fungicidal concentrations (MFCs) were measured.
(§2) Yeasts (Saccharomyces cerevisiae and Candida albicans) are cultured on SDA plates in a 35° C. incubator. Strains on SDA plates are stored at 4° C. and used as working stock cultures.
(§3) Inoculum for susceptibility testing is prepared from fresh 24 hour cultures. 5-10 colonies are scraped from the plate and suspended in three milliliters of sterile 0.85% saline (8.5 g/liter NaCl). The cell density of the solution is determined by measuring the absorbance in a spectrophotometer (Shimadzu UV-1201S UV-VIS Spectrophotometer) set at 600 nm. An absorbance value between 0.1 and 0.4 is required for an accurate reading.
(§4) For Candida albicans strains ATCC 10231, 1.0 OD600 unit is approximately 10^7 cells per ml. For Saccharomyces cerevisiae strain CTY552, 1.0 OD600 unit is slightly less than 10^7 cells per ml. Cell suspensions are diluted with the appropriate medium (typically RPMI-1640) to OD600 =0.0003 for Candida and OD600 =0.0004 for Saccharomyces. The diluted suspension contains approximately 3×10^3 cells per ml (this is a 2×concentration inoculum). Two 100 μl aliquots of this dilution are spread on SDA plates and incubated at 35° C. for 1-2 days to determine the precise number of colony forming units. An acceptable range for the inoculum (2×) is 1-5×10^3 cfu/ml (100-500 for 100 μl). Following two-fold dilution of the inoculum with compound, the final concentration of cells will be 0.5-2.5×10^3 per ml. The inoculum is kept at 4° C. and used within a few hours.
(§5) Stock solutions and concentrations tested will vary from compound to compound. In general, though, stock solutions of 12.8 mg/ml in DMSO (Sigma D-8779) are prepared. This will allow for a 128 μg/ml starting test concentration containing 1% DMSO. Stock solutions are stored at -20° C. and dilutions for antifungal testing are freshly prepared before each assay.
(§6) Stock solutions of Amphotericin B and Itraconazole are prepared at 1.6 mg/ml in DMSO. Amphotericin B is sold as a powder that is approximately 80% Amphotericin B. Stock solutions are made accordingly (2.0 mg of powder for a 1 ml solution of 1.6 mg/ml Amphotericin B).
(§7) Both of these (control and test compounds) represent 1:50 dilutions. For an assay with three fungal strains, 40 microliters of a stock solution are diluted to 2.0 ml with room temperature medium.
(§8) Antifungal susceptibility tests are setup in polystyrene, 96-well, flat bottom plates (Costar 9017). To every well in columns 2-12 is added 100 microliters of media. An electronic multichannel (12) pipettor with no tip on channel one is used. To every well in column one is added 200 microliters of diluted compound (32 μg/ml for Amphotericin B and Itraconazole controls, 256 μg/ml for test compounds, 100-fold dilution for natural product extracts). A manual multichannel (8) pipettor is then used to set up a series of 2-fold dilutions. 100 microliters is removed from each well of column one and mixed with 100 microliters in column 2. This is done successively (column two to column three etc.) to produce a set of 11 serial dilutions (column 12 is a drug free control).
(§9) To every well in two rows, 100 μl of inoculum (2×) of a single strain is added. To the final two rows on the plate (G & H), only media is added. Addition of inoculum is best accomplished using an electronic multichannel (12) pipettor. This setup (see below) creates a starting cell density of […] (100-500 per well) and drug concentration ranging from 16 μg/ml to […] for controls (Amphotericin B and Itraconazole), 128 μg/ml to 0.125 μg/ml for pure test compounds, and 200 to 204, 800-fold dilutions for natural product extracts.

The subject of assay [2] is S. serevisiae. As to the kind of experiment: MIC, broth microdilution (NCCLS M27-A), S. cerevisiae. Type of assay: cell-based, Saccharomyces cerevisiae. Particulars: for MIC S. serevisiae: broth microdilution, 35° C., 48 hours, S. cerevisiae CTY552; for MIC: Saccharomyces cerevisiae, 48 h, read-out: MIC S. serevisiae. As to the method: as §1, §2, §3, §4, §5, §6
Stock solutions of control compounds (1.6 mg/ml, Amphotericin B or Itraconazole) are initially diluted in medium to a concentration of 32 μg/ml while stock solutions of test compounds (typically 12.8 mg/ml) are diluted to 256 μg/ml. Both of these (control and test compounds) represent 1:50 dilutions. For an assay with three fungal strains, 40 microliters of a stock solution are diluted to 2.0 ml with room temperature medium.
as §8
To every well in two rows, 100 μl of inoculum (2×) of a single strain is added. To the final two rows on the plate (G & H), only media is added. Addition of inoculum is best accomplished using an electronic multichannel (12) pipettor. […]

Assay [3] relates to A. Nidulans. As to the kind of experiment: MIC, broth microdilution (NCCLS M27-A), A. nidulans. Format: cell-based. Conditions: 35° C., 48 hours; for MIC: Aspergillus nidulans. As to the method:
as §1
Filamentous fungi (Aspergillus spp.) is cultured on PDA plates in a 35° C. incubator. Inoculum of Aspergillus for susceptibility testing is prepared from plates incubated at 35° C. for 5 days. Colonies are covered with 5 ml of sterile 0.85% saline (8.5 g/liter NaCl) and gently rocked for 10-15 minutes. To dislodge the conidia, an automatic pipettor is used to gently wash over the colonies. The saline solution is removed from the plate and the heavy particles are allowed to settle for 3-5 minutes. The upper suspension is removed and vortexed for 15 sec. The turbidity of the solution is determined by measuring the absorbance in a spectrophotometer (Shimadzu UV-1201S UV-VIS Spectrophotometer) set at 600 nm. An absorbance value between 0.1 and 0.4 is required for an accurate reading.
The cell suspension is diluted with the appropriate medium (typically RPMI-1640) to OD600 =0.0004. The final suspension should contain approximately 3×10^3 cfu per ml (this is a 2×concentrationinoculum). Two 100 μl aliquots of this dilution are spread on SDA plates and incubated at 35° C. for 1-2 days to determine the precise number of colony forming units. An acceptable range for the inoculum (2×) is 1-5×10^3 cfu/ml (100-500 for 100 μl). Following two-fold dilution of the inoculum with compound, the final concentration of cells will be 0.5-2.5×10^3 per ml. The inoculum is kept at 4° C. and used within a few hours.
as §5, §6, §7, §8, §9

Take “2-pyridyl-benzaldehyde-N-(3-methoxy-2-pyrazinyl)hydrazine [(34)]”: the “MIC C. albicans” value in assay [1] worked out at 2 µg/mL. For the same molecule, in assay [2], the “MIC S. serevisiae” value amounted to 1 µg/mL. Moreover, the “MIC A. Nidulans” value in assay [3] is 1 µg/mL.
“3-carboxyl-2-hydroxybenzaldehyde-N-(3-methoxy-2-phenyl)hydrazine [(17)]”: the “MIC C. albicans” value in assay [1] was > 128 µg/mL. For the same molecule, the “MIC S. serevisiae” value in assay [2] was > 128 µg/mL. For the same molecule, the “MIC A. Nidulans” value in assay [3] is > 128 µg/mL.
`COc1cc(O)c(C=NNc2nccnc2OC)c(OC)c1` [(5)]: the MIC stood at 1 µg/mL (≈ 3.29 µM) in assay [1], 1 µg/mL (≈ 3.29 µM) in assay [2] and 2 µg/mL (≈ 6.57 µM) in assay [3].
In the case of `COc1nccnc1NN=Cc1cccc(O)c1O` [(6)], the MIC in assay [1] is 2 µg/mL (≈ 7.68 µM); in assay [2] it was 1 µg/mL (≈ 3.84 µM); in assay [3], 1 µg/mL (≈ 3.84 µM).
Take `COc1nccnc1NN=Cc1ccc(O)cc1O` [(7)]: the MIC in assay [1] worked out at 1 µg/mL (≈ 3.84 µM); in assay [2] it was 1 µg/mL (≈ 3.84 µM); in assay [3], 2 µg/mL (≈ 7.68 µM).
`COc1nccnc1N/N=C/c1ccc(O)c(O)c1O` [(8)]: the MIC in assay [1] is 4 µg/mL (≈ 14.5 µM); in assay [2], 2 µg/mL (≈ 7.24 µM); in assay [3] it was > 128 µg/mL.
Consider `COc1nccnc1N/N=C/c1ccc2ccccc2n1` [(9)], for which the MIC was 8 µg/mL (≈ 28.6 µM) in assay [1], 8 µg/mL (≈ 28.6 µM) in assay [2] and 16 µg/mL (≈ 57.3 µM) in assay [3].
Regarding `O=C(O)c1ccc(O)c(C=NNc2ccccc2)c1` [(18), 5-carboxyl-2-hydroxybenzaldehyde-N-phenyl hydrazone], the MIC in assay [1] stood at 1 µg/mL (≈ 3.9 µM); in assay [2], 1 µg/mL (≈ 3.9 µM); in assay [3], 0.125 µg/mL (≈ 0.488 µM).
On to `Oc1ccccc1C=NNc1ccccc1` [(19), 2-hydroxybenzaldehyde-N-phenyl hydrazone], for which the results for the MIC in assay [1], in assay [2] and in assay [3] were 1 µg/mL (≈ 4.71 µM), 1 µg/mL (≈ 4.71 µM) and 0.125 µg/mL (≈ 0.589 µM), respectively.
On to `O=C(O)c1ccc(O)c(C=NNc2cccc([N+](=O)[O-])c2)c1` [(20), 5-carboxyl-2-hydroxybenzaldehyde-N-3-nitro-phenyl hydrazone], for which the MIC in assay [1] was determined as 8 µg/mL (≈ 26.6 µM); in assay [2], 16 µg/mL (≈ 53.1 µM); in assay [3], 2 µg/mL (≈ 6.64 µM).
Regarding `O=C(O)c1ccc(O)c(C=NNc2ccccc2OC(F)(F)F)c1` [(21), 5-carboxyl-2-hydroxybenzaldehyde-N-2-trifluoromethyloxy-phenyl hydrazone], the MIC in assay [1] came to 2 µg/mL (≈ 5.88 µM); in assay [2] it was 1 µg/mL (≈ 2.94 µM); in assay [3], 1 µg/mL (≈ 2.94 µM).
In the case of `O=C(O)c1ccc(O)c(C=NNc2ccccc2C(=O)O)c1` [(22), 5-carboxyl-2-hydroxybenzaldehyde-N-2-carboxyl-phenyl hydrazone], the minimum inhibitory concentration (MIC) in assay [1], in assay [2] and in assay [3] was > 64 µg/mL each time.
For `O=C(O)c1ccc(O)c(C=NNc2cccc(F)c2)c1` [(23), 5-carboxyl-2-hydroxybenzaldehyde-N-3-fluorophenyl hydrazone], the MIC turned out to be 2 µg/mL (≈ 7.29 µM) in assay [1], 2 µg/mL (≈ 7.29 µM) in assay [2] and 0.125 µg/mL (≈ 0.456 µM) in assay [3].
For the molecule `O=C(O)c1ccc(O)c(C=NNc2ccccc2F)c1` [(24), 5-carboxyl-2-hydroxybenzaldehyde-N-2-fluoro-phenyl hydrazone], the MIC in assay [1] was found to be 0.25 µg/mL (≈ 0.912 µM); in assay [2], 0.5 µg/mL (≈ 1.82 µM); in assay [3], 0.063 µg/mL (≈ 0.23 µM).
In the same order, the values of `O=C(O)c1ccc(O)c(C=NNc2ccccc2Br)c1` [(25), 5-carboxyl-2-hydroxybenzaldehyde-N-2-bromophenyl hydrazone] are 2 µg/mL (≈ 5.97 µM), 2 µg/mL (≈ 5.97 µM) and 1 µg/mL (≈ 2.98 µM).
In the same order, the values of `O=C(O)c1ccc(O)c(C=NNc2ccccc2Cl)c1` [(26), 5-carboxyl-2-hydroxybenzaldehyde-N-2-chlorophenyl hydrazone] are 2 µg/mL (≈ 6.88 µM), 1 µg/mL (≈ 3.44 µM) and 0.5 µg/mL (≈ 1.72 µM).
In the same order, the values of `Cc1cccc(NN=Cc2cc(C(=O)O)ccc2O)c1` [(27), 5-carboxyl-2-hydroxybenzaldehyde-N-3-methyl-phenyl hydrazone] are 1 µg/mL (≈ 3.7 µM), 1 µg/mL (≈ 3.7 µM) and 0.25 µg/mL (≈ 0.925 µM).
Regarding `COc1ccccc1NN=Cc1cc(C(=O)O)ccc1O` [(28), 5-carboxyl-2-hydroxybenzaldehyde-N-2-methoxy-phenyl hydrazone], the MIC came out at 1 µg/mL (≈ 3.49 µM) in assay [1], 1 µg/mL (≈ 3.49 µM) in assay [2] and 0.25 µg/mL (≈ 0.873 µM) in assay [3].
As to `Cc1c(Cl)cccc1NN=Cc1cc(C(=O)O)ccc1O` [(29), 5-carboxyl-2-hydroxybenzaldehyde-N-3-chloro-2-methyl-phenyl hydrazone], the MIC in assay [1], in assay [2] and in assay [3] was 1 µg/mL (≈ 3.28 µM) each time.
For `O=C(O)c1ccc(O)c(C=NNc2cccc(Cl)c2)c1` [(30), 5-carboxyl-2-hydroxybenzaldehyde-N-3-chloro-phenyl hydrazone], the MIC is 2 µg/mL (≈ 6.88 µM) in assay [1], 1 µg/mL (≈ 3.44 µM) in assay [2] and 0.5 µg/mL (≈ 1.72 µM) in assay [3].
`Oc1ccccc1CNNc1ccccc1` [(32)]: the figures for the MIC in assay [1], in assay [2] and in assay [3] were 1 µg/mL (≈ 4.67 µM), 2 µg/mL (≈ 9.33 µM) and 0.125 µg/mL (≈ 0.583 µM), respectively.
In the same order, the values of `COc1nccnc1NNCc1ccccc1O` [(33)] are 2 µg/mL (≈ 8.12 µM), 1 µg/mL (≈ 4.06 µM) and 4 µg/mL (≈ 16.2 µM).
In the same order, the values of `FC(F)(F)c1cc(NC(=S)N/N=C/c2ccccn2)cc(C(F)(F)F)c1` [(37)] are 0.5 µg/mL (≈ 1.27 µM), 1 µg/mL (≈ 2.55 µM) and 1 µg/mL (≈ 2.55 µM).
In the same order, the values of `Fc1ccc(NC(=S)N/N=C/c2ccccn2)cc1` [(39)] are 2 µg/mL (≈ 7.29 µM), 2 µg/mL (≈ 7.29 µM) and 4 µg/mL (≈ 14.6 µM).
Consider “N-[(4-dimethylamino)sulfonyl-N-piperidyl)phenyl)]-2-[(E)-(4-benzyloxy-2-hydroxyphenyl)methylidene]-1-hydrazonecarbothiamide [(52)]”, for which the “MIC C. albicans” value in assay [1] is > 64 µg/mL. Moreover, in assay [3], the “MIC A. Nidulans” value is > 64 µg/mL.
